Measurements reported in ChEMBL document CHEMBL1201862, “PubChem BioAssay data set” (2004).
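Each compound was tested at five concentrations against cells in 96-well plates for 48 hours. At the GI50, growth is halved.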 Calls of active or inactive are those of the source. Rule as the data show it: active = GI50 up to about 1.1 µM and inactive = higher.

Tests used:
Assay in all cases: inhibition of tumour cell growth, NCI panel, 48 h
[1] = system: NCI/ADR-RES
[2] = system: OVCAR-4
[3] = system: MDA-MB-231
[4] = system: SNB-19
[5] = system: M14
[6] = system: UACC-62
[7] = system: UO-31
[8] = system: OVCAR-3
[9] = system: SK-MEL-5
[10] = system: A498
[11] = system: LXFL 529
[12] = system: HCC 2998
[13] = system: SF-539
[14] = system: UACC-257
[15] = system: K562
[16] = system: HOP-62
[17] = system: SK-MEL-2
[18] = system: PC-3
[19] = system: Hs-578T
[20] = system: T47D

Row | Compound | GI50 [1] | GI50 [2] | GI50 [3] | GI50 [4] | GI50 [5] | GI50 [6] | GI50 [7] | GI50 [8] | GI50 [9] | GI50 [10] | GI50 [11] | GI50 [12] | GI50 [13] | GI50 [14] | GI50 [15] | GI50 [16] | GI50 [17] | GI50 [18] | GI50 [19] | GI50 [20]
1 | COc1ccc(/C=C\c2cc(OC)c(OC)c(OC)c2)cc1OCC(=O)O | 2.21 µM (inactive) | 20.7 µM (inactive) | 18 µM (inactive) | 4.18 µM (inactive) | 3.79 µM (inactive) | 4.99 µM (inactive) | 7.13 µM (inactive) | 2.69 µM (inactive) | 4.45 µM (inactive) | 31.1 µM (inactive) | 6.55 µM (inactive) | 88.9 µM (inactive) | 3.64 µM (inactive) | 5.61 µM (inactive) | 3.68 µM (inactive) | 8.36 µM (inactive) | 6.68 µM (inactive) | 5.5 µM (inactive) | 2.93 µM (inactive) | 
2 | CCC(C)SC1SCC2C(=O)N(C)C3(CC3C)C(=O)OCC(NC(=O)c3nc4ccccc4cc3O)C(=O)NC(C)C(=O)N(C)C1C(=O)N(C)C1(CC1C)C(=O)OCC(NC(=O)c1nc3ccccc3cc1O)C(=O)NC(C)C(=O)N2C (stereo not given) | 0.0331 µM (active) |  | 5.78e-05 µM (active) | 4.79e-05 µM (active) | 0.000116 µM (active) | 1.55e-05 µM (active) | 0.00275 µM (active) |  |  | 0.000102 µM (active) | 3.1e-05 µM (active) | 0.000103 µM (active) | 4.79e-05 µM (active) | 5.3e-05 µM (active) | 2.77e-05 µM (active) | 5.64e-05 µM (active) | 4.37e-05 µM (active) | 0.000116 µM (active) | 5.24e-05 µM (active) | 0.000219 µM (active)
3 | Cc1ccccc1-n1c(C)nc(-c2ccccc2)cc1=O |  | > 100 µM (inactive) |  | > 100 µM (inactive) | > 100 µM (inactive) | > 100 µM (inactive) | > 100 µM (inactive) | > 100 µM (inactive) | > 100 µM (inactive) | > 100 µM (inactive) | > 100 µM (inactive) | > 100 µM (inactive) | > 100 µM (inactive) | > 100 µM (inactive) | > 100 µM (inactive) | > 100 µM (inactive) | > 100 µM (inactive) |  |  | 
4 | Cc1cc(Cl)ccc1Nc1nc2c(s1)C(=O)c1ccccc1C2=O |  | 3.29 µM (inactive) | 1.3 µM (inactive) | 4.75 µM (inactive) | 0.948 µM (active) | 2.5 µM (inactive) | 4.45 µM (inactive) | 1.43 µM (inactive) | 1.82 µM (inactive) | 22.2 µM (inactive) | 3.67 µM (inactive) | 6.34 µM (inactive) | 3.39 µM (inactive) | 2.53 µM (inactive) | 2.41 µM (inactive) | 5.13 µM (inactive) | 8.45 µM (inactive) | 1.82 µM (inactive) | 2.39 µM (inactive) | 2.02 µM (inactive)
